{
  "source": "patent US20250248965A1",
  "about": "“HEXAHYDRONAPHTHALEN-2-ONE DERIVATIVES FOR USE AGAINST A CORONAVIRUS INFECTION” (TÁMOGATOTT KUTATÓCSOPORTOK IRODÁJA, priority 2021, published 2025)",
  "assay_type_in_all_cases": "cell-based",
  "key": {"[1]": {"assay": "Alamar Blue cell viability (cytotoxicity) assay", "details": "African green monkey, Vero E6 host cells", "protocol": "(§1) Compounds to be tested were dissolved in DMSO at 20 mM concentration and stored at −20° C. Stock solutions were diluted with DMEM medium to result 100 μM concentration. The DMSO content was 0.5% in the highest concentration containing wells.\n(§2) In vitro cytotoxicity testing of the compounds was performed by the Alamar Blue cell viability assay. Briefly, Vero E6 cells were plated in a 96-well flat bottom tissue culture plates in 10% FBS containing DMEM media (5000 cells/100 μL) one day prior to experiment. Before the test, 50 μL supernatant was removed and replaced with 50 μL DMEM serum free (SFM) medium. […] Two days after, 20 μL Alamar Blue (resazurin sodium salt, Merck) solution (0.15 mg/mL in PBS, filtered […] Merck) was added to each well and after 3-3.5 hrs of incubation the fluorescence was measured at λEx=530/30 and at λEM=610/10 nm using a Synergy H4 multi-mode microplate reader (BioTek). All measurements were performed in quadruplets and the mean IC50 values together with SEM were represented on the graphs."}, "Vero E6 cells": {"test_system": "Vero E6 cells", "assay": "Alamar Blue cell viability (cytotoxicity) assay", "details": "48 hrs", "protocol": "as §1, §2"}, "SARS-CoV-2 [2]": {"test_system": "SARS-CoV-2", "assay": "Viral copy number by RT-qPCR from supernatant", "details": "supernatant of infected Vero E6 cells"}, "SARS-CoV-2 [3]": {"test_system": "SARS-CoV-2", "details": "SARS-CoV-2 infected Vero E6 cells, 48 hours of incubation"}},
  "data": [
    {"smiles": "CCN(CC)CCCC(C)Nc1ccnc2cc(Cl)ccc12", "note": "(stereo not drawn) [Chloroquine]", "values": [
      {"measurement": "IC50 at 48 h", "setting": "[1]", "value": 34, "unit": "µM"}
    ]},
    {"smiles": "CC(=O)Oc1ccccc1C(=O)Nc1ncc([N+](=O)[O-])s1", "note": "[Nitazoxanide]", "values": [
      {"measurement": "toxicity on the host cells", "setting": "Vero E6 cells; range up to 100 μM", "value": "around 35%"}
    ]},
    {"smiles": "C=C(C)[C@@H]1C[C@@]2(C)C(=CC1=O)CC[C@@H](O)[C@@H]2C", "note": "[Petasol, (3S,4aR,5R,6R)-6-hydroxy-4a,5-dimethyl-3-prop-1-en-2-yl-3,4,5,6,7,8-hexahydronaphthalen-2-one]", "values": [
      {"measurement": "viral RNA copy numbers (antiviral effect)", "setting": "SARS-CoV-2 [2]", "value": "high similarity with the TCID50 values"},
      {"measurement": "in vitro cytotoxicity (not cytotoxic up to)", "setting": "Vero E6 cells; Vero E6 host cells", "value": "> 100", "unit": "µM"}
    ]},
    {"smiles": "CC(C)=C1C[C@@]2(C)C(=CC1=O)CC[C@@H](O)[C@@H]2C", "note": "[isopetasol, (4aR,5R,6R)-6-hydroxy-4a,5-dimethyl-3-propan-2-ylidene-5,6,7,8-tetrahydro-4H-naphthalen-2-one]", "values": [
      {"measurement": "antiviral effect (virus-induced CPE, TCID50/mL)", "setting": "SARS-CoV-2 [3]", "value": "markedly different than petasol"}
    ]},
    {"smiles": "C=C(C)[C@H]1C[C@@]2(C)C(=CC1=O)CC[C@@H](O)[C@@H]2C", "note": "[neopetasol, (3R,4aR,5R,6R)-6-hydroxy-4a,5-dimethyl-3-prop-1-en-2-yl-3,4,5,6,7,8-hexahydronaphthalen-2-one]", "values": [
      {"measurement": "antiviral effect (virus-induced CPE, TCID50/mL)", "setting": "SARS-CoV-2 [3]", "value": "markedly different than petasol"}
    ]}
  ]
}
